For data set [1] the following is noted: cited from earlier work; for transdermal delivery into and across human skin: literature, primaquine: simple transdermal patch, full-thickness excised human skin.
The conditions of data set [2]: relative to base line; cited from earlier work.
The nature of data set [3]: physchem.
The conditions of data set [4]: blood level; cited from earlier work.
The nature of data set [5]: Stability of primaquine after exposure to iontophoresis by TLC of receptor compartment. Particulars: receptor compartment contents, silica gel, n-butanol:acetic acid:water (5:3:2).
Data set [6] is described as follows: In-vitro transdermal iontophoretic delivery of primaquine patch through epidermal membranes in Mattek permeation device.
Data set [7] addresses T1, plasma cholinesterase (Homo sapiens, UniProt P06276).
T1 construct: plasma samples that were treated with quinidine (20 μM); from tissue; host or cells: plasma
The data set can be described thus: Selective inhibition of cholinesterase activity in plasma samples treated with quinidine. The format is biochemical. To be noted: quinidine 20 μM, BTC vs other substrate.

Results on five compounds are retold here after patent US20080154179A1 (priority 2005, published 2008).

Values after ≈ are worked out from the molar mass of the structure shown. “Also recorded” adds a separate entry of the source.

T1 sequence (P06276 29-602): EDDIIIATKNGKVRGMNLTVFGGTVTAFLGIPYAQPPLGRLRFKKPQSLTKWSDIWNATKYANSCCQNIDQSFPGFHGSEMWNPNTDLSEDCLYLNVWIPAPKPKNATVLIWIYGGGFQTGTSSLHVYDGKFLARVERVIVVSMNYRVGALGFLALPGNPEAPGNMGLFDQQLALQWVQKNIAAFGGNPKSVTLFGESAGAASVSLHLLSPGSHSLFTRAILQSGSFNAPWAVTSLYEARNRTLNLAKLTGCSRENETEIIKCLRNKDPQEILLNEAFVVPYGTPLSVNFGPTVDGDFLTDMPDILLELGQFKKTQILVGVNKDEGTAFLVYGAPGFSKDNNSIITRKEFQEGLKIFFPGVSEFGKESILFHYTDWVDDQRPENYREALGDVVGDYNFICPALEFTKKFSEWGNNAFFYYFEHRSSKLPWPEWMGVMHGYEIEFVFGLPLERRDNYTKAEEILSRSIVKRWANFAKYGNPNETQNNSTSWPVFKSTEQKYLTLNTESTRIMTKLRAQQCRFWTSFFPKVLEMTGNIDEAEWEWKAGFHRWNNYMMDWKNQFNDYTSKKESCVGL

Take `C[C@H]1c2cccc(O)c2C(=O)C2=C(O)[C@]3(O)C(=O)C(C(N)=O)=C(O)[C@@H](N(C)C)[C@@H]3[C@@H](O)[C@@H]21` [doxycycline]: in data set [1], the “transdermal delivery into and across human skin” value is reported as “significant amounts”.
Consider `CC1CCC(C(C)C)C(O)C1` (centres unmarked) [menthol], for which, in data set [2], the “increase in skin flux” value was “up to eight times the base line”.
In general, solubility refers to the concentration that dissolves in the medium under given conditions. A high value points to much dissolved substance. `CN1CCCC1c1cccnc1` (centres unmarked) [nicotine] came in with a solubility in data set [3] of 50 mg/mL (≈ 308 mM).
For `COc1cc(NC(C)CCCN)c2ncccc2c1` (centres unmarked) [primaquine], in data set [4], the “therapeutic dosage (level) for the treatment of malaria” value was 0.03 µg/mL. For the same compound, the “stability of the primaquine molecule after exposure to iontophoresis (TLC)” value in data set [5] is reported as “intact primaquine is present; also recorded: there is more than one species of molecule present”. Moreover, the “transdermal delivery into and across human skin” value in data set [1] was “could deliver a therapeutic in vivo dose”. In addition, in data set [1] (passive delivery, per hour), the “share of the 10 mg dose delivered passively each hour” value is given as “Approximately 5%”. Moreover, in data set [1] (within 24 hours, to achieve therapeutic plasma concentrations), the “amount that can be delivered transdermally” value is 10 mg. Moreover, the “passive diffusion before and after iontophoresis” value in data set [6] (human epidermal membrane, no current, receptor PBS pH 7.4) is recorded as “Minimal passive diffusion”. In addition, the “amount delivered using electrotransport” value in data set [6] (in 40 minutes) came to 160 µg.
As for `C=C[C@H]1C[N@@]2CC[C@H]1C[C@@H]2[C@@H](O)c1ccnc2ccc(OC)cc12` [quinidine], in data set [7], the “inhibitory effect on plasma cholinesterase activity” value was “the inhibitory effect was observed only when BTC was used”.
